Experimental data reported in the supplement of paper PMC11451515.

System: SEM cells
Test: AUC of viability dose-response curve (% viability x log10 dose units); higher = less sensitive
Details: 48 h
Procedure, shortened: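 Over 48 h at 37°C, leukemia cells in 1536-well plates (500 or 1000 cells/well), adapted to each medium, received library compounds in DMSO at 11 threefold doses from 47 μM to 0.79 nM. CellTiter-Glo One luminescence, normalised per plate to DMSO and cell-free wells, was fitted by a four-parameter log-logistic function of log10 dose. The area under the curve was then integrated by trapezoidal rule, after scaling curves above full viability and removing those that failed quality control.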

[1] = RPMI 5 mM glucose + 10% dialyzed FBS

SMILES	AUC of viability dose-response curve (HPLM + 10% dialyzed FBS)	AUC of viability dose-response curve (RPMI 5 mM glucose + 10% FBS)	AUC of viability dose-response curve [1]
CCCCc1oc2ccccc2c1C(=O)c1cc(I)c(OCCN(CC)CC)c(I)c1	458	465	454
CC1CCN(c2cc(N3CCN(C)CC3)ccc2NC(=O)c2cc(C#N)c[nH]2)CC1	456	444	451
CC(=O)O/N=C1/C(=C2\C(=O)Nc3cc(Br)ccc32)Nc2ccccc21	324	317	308
COc1ccc2c(c1)CC[C@@H](CN(C)CC(=O)O)[C@H]2c1ccccc1	373	362	385
